Starred links: 1 amine or outer side, 2 acyl side, 3 side chain; linkers in the order of their positions; H or OH if unused. Positions of bridges follow the written chain, without caps; N, C: chain ends. Non-standard residues stand in square brackets, D forms with d. Residues, ends and D or L forms follow the SMILES beside them. Groups on a side chain read outwards from the residue. *: point of attachment. Phe(4-OC2H4NH2,2,3-(CH2)3) = NCCOc1ccc(C[C@H](N)C(=O)O)c2c1CCC2; Trp(7-cPr) = N[C@@H](Cc1c[nH]c2c(C3CC3)cccc12)C(=O)O; NH(CH2CH2O)4CH2CO = O=C(COCCOCCOCCOCCN[*:1])[*:2]; Trp(7-Me) = Cc1cccc2c(C[C@H](N)C(=O)O)c[nH]c12; C18 diacid = O=C(O)CCCCCCCCCCCCCCCCC(=O)*; γGlu = O=C(O)[C@H](CCC(=O)[*:2])N[*:1]; 2Nal = N[C@@H](Cc1ccc2ccccc2c1)C(=O)O; X1 = O=C(C(N[*:1])C1(S[*:3])CC1)[*:2]; X3 = C(c1nc(C[*:2])nc(C[*:3])n1)[*:1]; Thp(SO2) = NC1(C(=O)O)CCS(=O)(=O)CC1; oXylylene = c1ccc(C[*:2])c(C[*:1])c1; AEF = NCCOc1ccc(C[C@H](N)C(=O)O)cc1; Adipoyl = O=C(CCCCC(=O)[*:2])[*:1]; 3Pal = N[C@@H](Cc1cccnc1)C(=O)O; Pen = CC(C)(S)[C@H](N)C(=O)O; AEEA = NCCOCCOCC(=O)O; Sar = CNCC(=O)O
Target: T1, IL-23α/IL-12β and IL-23R (Homo sapiens, UniProt Q5VWK5)
T1 construct: purchased ACRO ILR-H82F3 (IL-23R); ILB-H52W5 (IL-23α/IL-12β)
T1 sequence (Q5VWK5 24-353 limits assumed): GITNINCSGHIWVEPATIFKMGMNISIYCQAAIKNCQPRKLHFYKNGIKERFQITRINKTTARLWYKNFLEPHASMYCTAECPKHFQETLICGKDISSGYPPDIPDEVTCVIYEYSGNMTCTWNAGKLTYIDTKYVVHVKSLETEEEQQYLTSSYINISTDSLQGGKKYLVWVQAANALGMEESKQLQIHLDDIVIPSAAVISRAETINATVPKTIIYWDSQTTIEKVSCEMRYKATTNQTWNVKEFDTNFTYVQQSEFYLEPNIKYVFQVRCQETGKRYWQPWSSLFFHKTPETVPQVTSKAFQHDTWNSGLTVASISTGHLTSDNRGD
Test: IL-23α/IL-12β and IL-23R binding assay (TR-FRET/HTRF)
Settings: inhibition of the binding of IL-23α/IL-12β to IL-23R, TR-FRET; both proteins 0.3 nM
Method: 1. IL-23α/IL-12β and IL-23R binding assay
Compounds were tested for their inhibition on the binding of IL-23α/IL-12β to IL-23R by the TR-FRET method. Solutions of proteins IL-23α/IL-12β (ACRO, Cat# ILB-H52W5) and IL-23R (ACRO, Cat# ILR-H82F3) were prepared in reaction buffer PPI (PerkinElmer, Cat# 61DB10RDF). The final concentrations of IL-23α/IL-12β and IL-23R in the reaction mixture were both 0.3 nM. Positive reference Guselkumab was 3-fold diluted from an initial concentration of 30 nM, with 10 doses. 0.1 µL of the positive reference diluted in the reaction buffer was delivered to a 384-well plate (Grenier, Cat# 784075) by the acoustic liquid delivery technique (Echo 655), and the plate was centrifuged at 1000 rpm for 1 minute. 2.5 µL of IL-23α/IL-12β solution was transferred into the 384-well reaction plate, and the plate was centrifuged at 1000 rpm for 1 minute, and incubated at 25°C for 60 minutes. 2.5 µL of IL-23R solution was transferred into the 384-well reaction plate, and the plate was centrifuged at 1000 rpm for 1 minute. 5 µL of Streptavidin-Tb cryptate and Anti 6HIS-d2 detection mixture was transferred into the 384-well reaction plate, and the plate was centrifuged at 1000 rpm for 1 minute, and incubated at 25°C for 60 minutes. Finally, the HTRF signal (Ratio 665/620 nm) was read with a BMG high-throughput drug screening multifunctional microplate reader. IC50 values were obtained by nonlinear regression curve fitting using GraphPad Prism software.

CC(=O)N[C@@H](CCC(=O)NCCOCCOCC(=O)NCCOCCOCC(=O)NCCCC[C@@H]1NC(=O)[C@H](Cc2c[nH]c3c(C4CC4)cccc23)NC(=O)[C@H]([C@@H](C)O)NC(=O)[C@H](Cc2c[nH]cn2)NC(=O)[C@@H](NC(C)=O)C(C)(C)SSC(C)(C)[C@@H](C(=O)N[C@@H](Cc2ccc(OCCN)c3c2CCC3)C(=O)N[C@@H](Cc2ccc3ccccc3c2)C(=O)NC2(C(=O)N[C@@H](CCC(=O)O)C(=O)N[C@@H](CC(N)=O)C(=O)N[C@@H](Cc3cccnc3)C(=O)N(C)CC(N)=O)CCS(=O)(=O)CC2)NC1=O)C(=O)O [Compound 47] (Ac-[Pen]HT[Trp(7-cPr)]K([AEEA-AEEA-γGlu-Ac])[Pen][Phe(4-OC2H4NH2,2,3-(CH2)3)][2Nal][Thp(SO2)]EN[3Pal][Sar]-NH2; disulfide 1-6)
IC50: 0.093 nM

CC(=O)N[C@@H]1C(=O)N[C@@H](Cc2c[nH]cn2)C(=O)N[C@@H]([C@@H](C)O)C(=O)N[C@@H](Cc2c[nH]c3c(C4CC4)cccc23)C(=O)N[C@@H](CCCCNC(=O)COCCOCCNC(=O)COCCOCCNC(=O)CC[C@H](NC(=O)CCCCC(=O)O)C(=O)O)C(=O)N[C@H](C(=O)N[C@@H](Cc2ccc(OCCN)c3c2CCC3)C(=O)N[C@@H](Cc2ccc3ccccc3c2)C(=O)NC2(C(=O)N[C@@H](CCC(=O)O)C(=O)N[C@@H](CC(N)=O)C(=O)N[C@@H](Cc3cccnc3)C(=O)N(C)CC(N)=O)CCS(=O)(=O)CC2)C(C)(C)SSC1(C)C [Compound 49] (Ac-[Pen]HT[Trp(7-cPr)]K([AEEA-AEEA-γGlu-Adipoyl])[Pen][Phe(4-OC2H4NH2,2,3-(CH2)3)][2Nal][Thp(SO2)]EN[3Pal][Sar]-NH2; disulfide 1-6)
IC50: 0.068 nM

CC(=O)N[C@H]1CSCc2nc3nc(n2)CSC[C@@H](C(=O)N[C@@H](CC(N)=O)C(=O)N[C@@H](Cc2cccnc2)C(=O)N(C)CC(N)=O)NC(=O)C2(CCS(=O)(=O)CC2)NC(=O)[C@H](Cc2ccc4ccccc4c2)NC(=O)[C@H](Cc2ccc(OCCN)c4c2CCC4)NC(=O)[C@H](CSC3)NC(=O)[C@H](CCC(N)=O)NC(=O)[C@H](Cc2c[nH]c3c(C)cccc23)NC(=O)[C@H]([C@@H](C)O)NC(=O)[C@H](Cc2c[nH]cn2)NC1=O [Compound 33] (Ac-CHT[Trp(7-Me)]QC[Phe(4-OC2H4NH2,2,3-(CH2)3)][2Nal][Thp(SO2)]CN[3Pal][Sar]-NH2; linker 1-6-10 via X3)
IC50: 0.395 nM

CC(=O)N[C@@H](CCC(=O)NCCOCCOCC(=O)NCCOCCOCC(=O)N[C@@H]1C(=O)N[C@@H](Cc2c[nH]cn2)C(=O)N[C@@H]([C@@H](C)O)C(=O)N[C@@H](Cc2c[nH]c3c(C4CC4)cccc23)C(=O)N[C@@H](CCC(N)=O)C(=O)N[C@H](C(=O)N[C@@H](Cc2ccc(OCCN)c3c2CCC3)C(=O)N[C@@H](Cc2ccc3ccccc3c2)C(=O)NC2(C(=O)N[C@@H](CCC(=O)O)C(=O)N[C@@H](CC(N)=O)C(=O)N[C@@H](Cc3cccnc3)C(=O)N(C)CC(N)=O)CCS(=O)(=O)CC2)C(C)(C)SSC1(C)C)C(=O)O [Compound 36] (Ac-[γGlu][AEEA][AEEA][Pen]HT[Trp(7-cPr)]Q[Pen][Phe(4-OC2H4NH2,2,3-(CH2)3)][2Nal][Thp(SO2)]EN[3Pal][Sar]-NH2; disulfide 4-9)
IC50: 0.042 nM

CC(=O)NCCCC[C@@H]1NC(=O)[C@H](Cc2c[nH]c3c(C)cccc23)NC(=O)[C@H]([C@@H](C)O)NC(=O)[C@H](CC(N)=O)NC(=O)C(NC(C)=O)CCCC[C@@H](C(=O)N[C@@H](Cc2ccc(OCCN)cc2)C(=O)N[C@@H](Cc2ccc3ccccc3c2)C(=O)NC2(C(=O)N[C@@H](CCC(=O)O)C(=O)N[C@@H](CC(N)=O)C(=O)N[C@@H](Cc3cccnc3)C(=O)N(C)CC(N)=O)CCOCC2)NC1=O (single isomer, unassigned) [Compound 44-1]
IC50: 0.145 nM

C[C@@H](O)[C@@H]1NC(=O)[C@H](Cc2c[nH]cn2)NC(=O)[C@@H](NC(=O)COCCOCCNC(=O)COCCOCCNC(=O)CC[C@H](NC(=O)CCCCC(=O)O)C(=O)O)C(C)(C)SSC(C)(C)[C@@H](C(=O)N[C@@H](Cc2ccc(OCCN)c3c2CCC3)C(=O)N[C@@H](Cc2ccc3ccccc3c2)C(=O)NC2(C(=O)N[C@@H](CCC(=O)O)C(=O)N[C@@H](CC(N)=O)C(=O)N[C@@H](Cc3cccnc3)C(=O)N(C)CC(N)=O)CCS(=O)(=O)CC2)NC(=O)[C@H](CCC(N)=O)NC(=O)[C@H](Cc2c[nH]c3c(C4CC4)cccc23)NC1=O [Compound 48] ({Adipoyl-γGlu-AEEA-AEEA}-[Pen]HT[Trp(7-cPr)]Q[Pen][Phe(4-OC2H4NH2,2,3-(CH2)3)][2Nal][Thp(SO2)]EN[3Pal][Sar]-NH2; disulfide 1-6)
IC50: 0.058 nM

Cc1cccc2c(C[C@@H]3NC(=O)[C@H]([C@@H](C)O)NC(=O)[C@H](Cc4c[nH]cn4)NC(=O)C4NC(=O)COCCOCCOCCOCCNC(=O)CC[C@@H](C(=O)N[C@@H](CC(N)=O)C(=O)N[C@@H](Cc5cccnc5)C(=O)N(C)CC(N)=O)NC(=O)C5(CCS(=O)(=O)CC5)NC(=O)[C@H](Cc5ccc6ccccc6c5)NC(=O)[C@H](Cc5ccc(OCCN)cc5)NC(=O)[C@@H](NC(=O)[C@H](CCC(N)=O)NC3=O)C(C)(C)SSC43CC3)c[nH]c12 [Compound 53] ([NH(CH2CH2O)4CH2CO][X1]HT[Trp(7-Me)]Q[Pen][AEF][2Nal][Thp(SO2)]EN[3Pal][Sar]-NH2; disulfide 2-7; lactam N-11)
IC50: 0.065 nM

CC(=O)N[C@@H]1C(=O)N[C@@H](Cc2c[nH]cn2)C(=O)N[C@@H]([C@@H](C)O)C(=O)N[C@@H](Cc2c[nH]c3c(C4CC4)cccc23)C(=O)N[C@@H](CCCCNC(=O)COCCOCCNC(=O)COCCOCCNC(=O)CC[C@H](NC(=O)CCCCCCCCCCCCCCCCC(=O)O)C(=O)O)C(=O)N[C@H](C(=O)N[C@@H](Cc2ccc(OCCN)c3c2CCC3)C(=O)N[C@@H](Cc2ccc3ccccc3c2)C(=O)NC2(C(=O)N[C@@H](CCC(=O)O)C(=O)N[C@@H](CC(N)=O)C(=O)N[C@@H](Cc3cccnc3)C(=O)N(C)CC(N)=O)CCS(=O)(=O)CC2)C(C)(C)SSC1(C)C [Compound 21] (Ac-[Pen]HT[Trp(7-cPr)]K([AEEA-AEEA-γGlu-C18 diacid])[Pen][Phe(4-OC2H4NH2,2,3-(CH2)3)][2Nal][Thp(SO2)]EN[3Pal][Sar]-NH2; disulfide 1-6)
IC50: 0.248 nM

CC(=O)N[C@H]1CSCc2ccccc2CSC[C@@H](C(=O)N[C@@H](Cc2ccc(OCCN)c3c2CCC3)C(=O)N[C@@H](Cc2ccc3ccccc3c2)C(=O)NC2(C(=O)N[C@@H](CCC(=O)O)C(=O)N[C@@H](CC(N)=O)C(=O)N[C@@H](Cc3cccnc3)C(=O)N(C)CC(N)=O)CCS(=O)(=O)CC2)NC(=O)[C@H](CCC(N)=O)NC(=O)[C@H](Cc2c[nH]c3c(C)cccc23)NC(=O)[C@H]([C@@H](C)O)NC(=O)[C@H](Cc2c[nH]cn2)NC1=O [Compound 31] (Ac-CHT[Trp(7-Me)]QC[Phe(4-OC2H4NH2,2,3-(CH2)3)][2Nal][Thp(SO2)]EN[3Pal][Sar]-NH2; linker 1-6 via oXylylene)
IC50: 0.258 nM

CC(=O)NCCCC[C@@H]1NC(=O)[C@H](Cc2c[nH]c3c(C)cccc23)NC(=O)[C@H]([C@@H](C)O)NC(=O)[C@H](Cc2c[nH]cn2)NC(=O)[C@@H](NC(C)=O)CCCC[C@@H](C(=O)N[C@@H](Cc2ccc(OCCN)c3c2CCC3)C(=O)N[C@@H](Cc2ccc3ccccc3c2)C(=O)NC2(C(=O)N[C@@H](CCC(=O)O)C(=O)N[C@@H](CC(N)=O)C(=O)N[C@@H](Cc3cccnc3)C(=O)N(C)CC(N)=O)CCOCC2)NC1=O [Compound 52]
IC50: 0.101 nM
